Measured values taken from patent publication US20190287644A1, “Correlation Method To Identify Relevant Genes For Personalized Treatment Of Complex Disease” (Northeastern University, priority 2018, published 2019).

Key:
[1] = system: neonatal rat ventricular myocytes (NRVMs); test: Cardiomyocyte cell cross-sectional area; format: cell-based; settings: cells transfected with control siRNA, following ISO/PE treatment
From the text: (§1) Right ventricular myocytes were isolated and cultured, as reported using 2-4 day old rats. Myocytes and fibroblasts were separated with Percoll density gradient. For knockdown experiments cells were transfected with Hes1 siRNA using lipofectamine RNAimax (life technologies).
Quantification of cardiomyocyte cell cross-sectional area was done following transfection with either control or Hes1 siRNA and a 48-hour treatment with control or isoproterenol or phenylepherine containing media. Images were taken on a Nikon Eclipse TE2000-U microscope. Images were analyzed using the Nikon Imagine System (NIS). 150 cells were used to compute the SEM.

[2] = system: Nppa and Nppb; test: Expression of hypertrophic markers Nppa and Nppb in neonatal rat ventricular myocytes (qPCR); format: cell-based; settings: NRVMs transfected with control siRNA
Description: as §1
RNA isolation from cells was performed using Qiazol lysis reagent. cDNA synthesis was performed using the High Capacity Reverse Transcription cDNA Kit (Life Technologies). qPCR was performed using the LightCycler 480 (Roche).

[3] = system: Hybrid Mouse Diversity Panel (HMDP) strains; test: ISO-induced cardiac hypertrophy (total heart weight) in the Hybrid Mouse Diversity Panel; format: in vivo; settings: across HMDP strains, three weeks after implantation of ISO pump (30 mg per kg per day, 21 days)
Description: 30 mg per kg body weight per day of Isoproterenol (ISO) was administered for 21 days in 8-10 week old female mice using ALZET osmotic mini-pumps, which were surgically implanted intraperitoneally. All animal experiments were conducted following guidelines established and approved by the University of California, Los Angeles Institutional Animal Care and Use Committee (IACUC) and housed in an IACUC-approved vivarium with daily monitoring by vivarium personnel.
As each mouse in a strain is genetically identical, several mice from the same strain were used for measuring the cardiac hypertrophic response to ISO treatment. […] Cardiac hypertrophy for a given strain was calculated as the increase in average total heart weight after ISO treatment compared to control mice.
One can also perform an entirely novel type of differential gene expression analysis owing to the fact that, in addition to control and treated subjects belonging to the same strain having the same genetic background, the change of heart mass in response to ISO, i.e., the ratio m′i/mi of total heart mass before (mi) and after ISO treatment (m′i) for strain i, can be measured for all strains (i=1, 2, . . . , N) to assess the degree of hypertrophy among different strains. […]

Row | SMILES | cellular cross-sectional area [1] | increase of Nppa expression [2] | increase of Nppb expression [2] | increase of heart mass [3]
1 | CNC[C@H](O)c1cccc(O)c1 [PE, phenylephrine] | doubled | 11 fold | 13 fold | 
2 | CC(C)NCC(O)c1ccc(O)c(O)c1 (stereo not shown) [ISO, isoproterenol] | doubled | 3.5 fold | 7.9 fold | ≤ 80%
